Structures are written as SMILES. Entries after “also recorded” stand apart in the source; their conditions may differ. Where two headings read alike, the source gives them in different places.

Here are results for two molecules from patent US20240400529A1, “COMPOSITIONS AND METHODS FOR THE PREVENTION AND/OR TREATMENT OF MITOCHONDRIAL DISEASE, INCLUDING FRIEDREICH'S ATAXIA” (Stealth BioTherapeutics Inc., priority 2019, published 2024).

Test [1] has as its system frataxin deficient fibroblasts (Friedreich's ataxia patient, GM03665). Type of test: cell-based.
The subject of test [2] is intact HepG2 cells. Nature of the test: Rotenone Oxygraph Assay (high-resolution respirometry). Particulars: 1 μM rotenone, 10 μM compound. Type of test: cell-based, human. The protocol: The Oxygraph-2k (O2k, OROBOROS INSTRUMENTS, Austria) was used for measurements of respiration of intact cells. The respirometry was performed in Dulbecco's Modified Eagle Medium (DMEM) high glucose without supplements. All experiments were performed at 37° C.
HepG2 cells (ATCC collection code HB-8065™) were cultured in 10 cm^2 culture dishes in DMEM high glucose medium supplemented with 10% fetal bovine serum (FBS) and 100 units/mL penicillin and 100 μg/mL streptomycin until approximately 90% confluence was reached. Immediately prior to performing the respirometric assay, the cells were washed with media without FBS, trypsinized and resuspended in DMEM high glucose without FBS.
The final concentration of intact cells in the O2k-chamber was 0.5.10^6/mL. After stabilization of respiration, the Complex I inhibitor, rotenone, at 1 μM final concentration was added to inhibit electron flux via Complex I. Then, compound to be tested was added at 10 μM final concentration, and the change in respiration rate of intact cells was monitored.

Test [3] relates to HepG2 human hepatocarcinoma cells. Briefly: Rotenone ATP Assay (Complex I by-pass). Type of test: cell-based. The conditions noted are these: summary statements also cover the Oxygraph assay. How it is done:
This assay has been adapted from Haefeli R H, Erb M, Gemperli A C, Robay D, Courdier Fruh I, et al. (2011) NQO1-Dependent Redox Cycling of Idebenone: Effects on Cellular Redox Potential and Energy Levels. PLOS ONE 6 (3): e17963. HepG2 human hepatocarcinoma cells were co-incubated with the electron transport chain Complex I toxin rotenone+/−compounds of interest and the corresponding effect on ATP synthesis was measured with a bioluminescent substrate.
In brief, HepG2 cells were plated at 25,000 cells per well in low glucose (1 gram/Liter) DMEM medium+10% fetal calf serum and incubated for 24 hours. The following day, the media was decanted and subsequently replaced with glucose free/serum free DMEM which has been supplemented with 50 micromolar rotenone and compound of interest. Serial dilutions of compound were prepared in 3× dilutions beginning at 25 micromolar. The cells were incubated for 60 minutes in a humidified tissue culture incubator. Following incubation, ATP levels were quantified via bioluminescent assay (Promega […] Glo Assay kit) and readings were captured on a standard microplate reader.
ATP bioluminescence is plotted versus the log of compound of interest and data were used to generate EC50 values. Curve fitting was performed using a sigmoidal dose response curve fit function (GraphPad Prism software).
Robustness of curve fit was assessed as a quality control measure, with an R squared value of at least 0.80 being required for a successful curve fit. Compounds of interest showing an increase in ATP bioluminescence relative to vehicle control were verified in an independent biological replicate of n=3 technical replicates per dose.
This assay is a direct measure of the ability of compounds of interest to restore ATP production under conditions of inhibition of Complex I of the mitochondrial electron transport chain. As the majority of ATP produced via the electron transport chain is thought to derive from Complex I activity, significant impairment in Complex I function has dire biological consequences. Of note, Complex I mutations are thought to drive pathophysiology in multiple mitochondrial diseases, including Leigh syndrome and Leber's Hereditary Optic Neuropathy (LHON), while diminished Complex I activity and the resultant attenuation of ATP production has been shown in neurodegenerative diseases, including Friedreich's Ataxia, Parkinson's Disease and Huntington's Disease.

Test [4] concerns the target lipoxygenase-15 enzyme (Glycine max (Soybean) (Glycine hispida), UniProt P08170). Nature of the test: Lipoxygenase-15 Assay (LO-15 Assay). The test is classed as biochemical. Particulars: reduced forms tested.
Test [5] concerns GM03665 cells (fibroblasts from a subject with Friedreich's ataxia). Nature of the test: RSL3 Toxicity Assay (RSL3 Assay). The conditions noted are these: for EC50: Homo sapiens, Fibroblast, 2 μM RSL3, 24 hours, MTT. The test is classed as cell-based, human. How it is done: In brief, GM03665 cells (Coriell Institute) were seeded in 96-well plates (Sarstedt) in DMEM cell culture media containing 10% Fetal Bovine serum and 1% Penicillin-Streptomycin (Pen-Strep) antibiotic mix at the amount of 2×10^4/mL (100 μL or 2×10^3 cells per well). Cells were left to rest overnight at 37° C. in a humidified atmosphere with 5% CO2 to allow attachment of the cells to the culture plate. Test compounds were prepared as DMSO stocks (10 mM) and were serially diluted in cell culture media to obtain 2× working solutions. Cell media was discarded and replaced by 50 μL of test compound solutions or cell media with vehicle for control wells. Within 15 minutes, 2× working solution (4 μM) of 1S,3R-RSL3 (CAS #1219810-16-8, Sigma-Aldrich) (diluted from 5 mM DMSO stock in cell culture media) was added. Final reaction volume was 100 μL and final DMSO concentration in reaction was kept below 0.2% (v/v) and equal in all wells. Final RSL3 concentration was 2 μM and test compound final concentrations in reaction were up to 1000 nM. After 24 hours of incubation cell viability was assessed by MTT test. MTT (Sigma-Aldrich) solution 1 mg/mL in 1×PBS (pH=7,4) was prepared 1 hour before the assay and filtered through Filtropur S 0.2 filters (Sarstedt). Cell media with test compounds was discarded and 100 μL of MTT solution was added to cells. The plates were incubated for 2 hours at +37° C. Thereafter, the MTT solution was removed and 100 μL of isopropanol was added to dissolve sediment. Absorption at 570 and 650 nm was measured using Hidex Sense microplate reader.

The subject of test [6] is Nrf-2 responsive genes. Briefly: Nrf-2 Activation Assay (Nrf-2 Assay). Type of test: cell-based, human. The conditions noted are these: 24 hours; for activation of Nrf-2 responsive genes / pathway, in words: FIG. 7, 1 μM. How it is done: This assay was developed internally and was designed to determine if the novel test compounds disclosed herein active Nrf-2 and thereby promote resolution of inflammation by the mechanism believed to be responsible for the activity of omaveloxolone.
Briefly, GM03665 Eriedreich Ataxia patient fibroblasts were grown in 12 Well Plates (TC Cell+F) (Sarstedt, Nümbrecht Germany), at a density of 12×10^4 cells/per well in DMEM/F12 (Gibco, ThermoFisher Scientific, Waltham, MA, USA) cell media supplemented with 10% FBS and 1% Pen/Strep. Cells were left to rest overnight at 37° C. in a humidified atmosphere with 5% CO2 to allow attachment of the cells to the culture plate. Before continuing assay visual inspection of each well was done by light microscopy to detect any possible bacterial and fungal contamination. […] After incubation, cell media was removed and total RNA from the cells was isolated using E.Z.N.A.® Total RNA Kit I (Omega Bio-tek, Norcross, Georgia, USA) spin columns, and first-strand cDNA synthesis was carried out using a High Capacity cDNA Reverse Transcription Kit (Applied Biosystems™, Foster City, CA) following the manufacturer's instructions. qPCR analysis of gene expression was performed by mixing SYBR® Green Master Mix (Applied Biosystems™) with synthesized cDNA and forward and reverse primers. […] (60 cycles), and 95° C. for 60 seconds, followed by melt curve analysis at 72-95° C., 0.3° C./sec. The relative expression levels for each gene were calculated with the ΔΔCt method and normalized to the expression of REEP5 and SNRPD3 genes.

Take `CC1=C(C)C(=O)C(CC[C@@](C)(O)COCCC[Si](C)(C)C)=C(C)C1=O` [Compound M, (R)-2-(3-hydroxy-3-methyl-4-(3-(trimethylsilyl)propoxy)butyl)-3,5,6-trimethylcyclohexa-2,5-diene-1,4-dione]: the “protection from BSO induced cell death / ferroptosis, in words” value in test [1] is recorded as “able to prevent ferroptotic cell death; also recorded: active”. Also, the “Rotenone Oxygraph Assay % Increase (Table 7)” value in test [2] is 56.6 +/− 11.3%. Also, the “Complex I by-pass activity / restoring ATP production, in words” value in test [3] was “active”. The “lipoxygenase-15 inhibition, in words” value in test [4] was “best result; also recorded: effective inhibitors”. Further, the “activity in the RSL3 Assay, in words” value in test [5] is “active; also recorded: able to prevent ferroptotic cell death”. Besides, the concentration giving a half-maximal response (EC50) in test [5] (mean of at least three measurements, unit from Table 7, read-out: Mean EC50, RSL3 Assay (Table 3)) amounted to 41.2 nM; in test [5] (read-out: RSL3 Assay EC50, nM (Table 7)), 41.2 nM. Further, the “Nrf-2 Assay (Table 7)” value in test [6] (1 μM compound, qPCR of Nrf-2 responsive genes) was “Inactive”. Further, the “activation of Nrf-2 responsive genes / pathway, in words” value in test [6] was “do not activate”.
On to `CC1=C(C)C(=O)C(CC[C@](C)(O)CCCCCCCCC(F)(F)F)=C(C)C1=O` [Compound N, (R)-2,3,5-trimethyl-6-(12,12,12-trifluoro-3-hydroxy-3-methyldodecyl)cyclo-hexa-2,5-diene-1,4-dione], for which the “protection from BSO induced cell death / ferroptosis, in words” value in test [1] was “possess both activities; also recorded: able to prevent ferroptotic cell death; also recorded: active”. Moreover, the “Rotenone Oxygraph Assay % Increase (Table 7)” value in test [2] is given as 44.8 +/− 10.3%. Moreover, in test [3], the “Complex I by-pass activity / restoring ATP production, in words” value is “possess both activities”. In addition, in test [4], the “lipoxygenase-15 inhibition, in words” value was “effective inhibitors”. Further, in test [5], the “activity in the RSL3 Assay, in words” value is on record as “active; also recorded: able to prevent ferroptotic cell death”. Moreover, in test [6], the “activation of Nrf-2 responsive genes / pathway, in words” value is given as “do not activate”.

Broadly, the EC50 is the concentration needed to bring the measured effect to its halfway point.
